In ChEMBL document CHEMBL2424544, “Inhibitors of switch kinase 'spleen tyrosine kinase' in inflammation and immune-mediated disorders: a review” (Eur J Med Chem, 2013):

Target: Tyrosine-protein kinase SYK (Homo sapiens, UniProt P43405)
Assay: Inhibition of spleen tyrosine kinase (unknown origin); call rule not given here

Compound	IC50 (read-out: IC50) [µM]	IC50
CNC(=O)c1cnc(NCCN)nc1Nc1cccc(C(F)(F)F)c1	> 10	
CN(C)CCN(C)c1ncc(C(N)=O)c(Nc2cccc(C(F)(F)F)c2)n1	> 10	
CNc1nc(NCCN)ncc1C(N)=O	> 10	
COc1ccc2c(c1)c(/C=C1\C(=O)Nc3ccc(S(=O)(=O)N(C)C)cc31)cn2C		Not Active
CN(C)C(=O)c1cnc(NCCN)nc1Nc1cccc(C(F)(F)F)c1	> 10	
